# According to the NIST ThermoML archive (doi:10.1016/j.jct.2013.03.013):
# ± gives the expanded uncertainty stated by the source.
# Settings: Liquid, Vibrating wire viscometry
structure (smiles),measurement,setting,value
"C=C(F)C(F)(F)F [2,3,3,3-tetrafluoro-1-propene]",viscosity,"243.16 K, 99 kPa",0.2892 ± 0.0074 mPa·s
same,viscosity,"243.16 K, 1000 kPa",0.2913 ± 0.0074 mPa·s
same,viscosity,"243.16 K, 3000 kPa",0.2982 ± 0.0075 mPa·s
same,viscosity,"243.16 K, 5000 kPa",0.3049 ± 0.0077 mPa·s
same,viscosity,"243.16 K, 10000 kPa",0.3212 ± 0.008 mPa·s
same,viscosity,"243.16 K, 15000 kPa",0.3397 ± 0.0083 mPa·s
same,viscosity,"243.16 K, 20000 kPa",0.3572 ± 0.0086 mPa·s
same,viscosity,"243.16 K, 25000 kPa",0.3748 ± 0.0089 mPa·s
same,viscosity,"243.16 K, 30000 kPa",0.3927 ± 0.0093 mPa·s
same,viscosity,"253.16 K, 151 kPa",0.2554 ± 0.0068 mPa·s
same,viscosity,"253.16 K, 1000 kPa",0.258 ± 0.0068 mPa·s
same,viscosity,"253.16 K, 3000 kPa",0.2638 ± 0.0069 mPa·s
same,viscosity,"253.16 K, 5000 kPa",0.2708 ± 0.007 mPa·s
same,viscosity,"253.16 K, 10000 kPa",0.2877 ± 0.0073 mPa·s
same,viscosity,"253.16 K, 15000 kPa",0.3038 ± 0.0076 mPa·s
same,viscosity,"253.16 K, 20000 kPa",0.3201 ± 0.0079 mPa·s
same,viscosity,"253.16 K, 25000 kPa",0.3362 ± 0.0082 mPa·s
same,viscosity,"253.16 K, 30000 kPa",0.3517 ± 0.0085 mPa·s
same,viscosity,"263.16 K, 222 kPa",0.2265 ± 0.0063 mPa·s
same,viscosity,"263.16 K, 1000 kPa",0.229 ± 0.0063 mPa·s
same,viscosity,"263.16 K, 3000 kPa",0.2355 ± 0.0064 mPa·s
same,viscosity,"263.16 K, 5000 kPa",0.242 ± 0.0065 mPa·s
same,viscosity,"263.16 K, 10000 kPa",0.2581 ± 0.0068 mPa·s
same,viscosity,"263.16 K, 15000 kPa",0.2731 ± 0.0071 mPa·s
same,viscosity,"263.16 K, 20000 kPa",0.2894 ± 0.0074 mPa·s
same,viscosity,"263.16 K, 25000 kPa",0.3035 ± 0.0076 mPa·s
same,viscosity,"263.16 K, 30000 kPa",0.3178 ± 0.0079 mPa·s
same,viscosity,"273.15 K, 316 kPa",0.2019 ± 0.0059 mPa·s
same,viscosity,"273.15 K, 1000 kPa",0.2033 ± 0.0059 mPa·s
same,viscosity,"273.15 K, 3000 kPa",0.21 ± 0.006 mPa·s
same,viscosity,"273.15 K, 5000 kPa",0.2162 ± 0.0061 mPa·s
same,viscosity,"273.15 K, 10000 kPa",0.2313 ± 0.0064 mPa·s
same,viscosity,"273.15 K, 15000 kPa",0.2457 ± 0.0066 mPa·s
same,viscosity,"273.15 K, 20000 kPa",0.2601 ± 0.0069 mPa·s
same,viscosity,"273.15 K, 25000 kPa",0.2744 ± 0.0071 mPa·s
same,viscosity,"273.15 K, 30000 kPa",0.2874 ± 0.0073 mPa·s
same,viscosity,"283.14 K, 438 kPa",0.1796 ± 0.0055 mPa·s
same,viscosity,"283.14 K, 1000 kPa",0.1815 ± 0.0055 mPa·s
same,viscosity,"283.14 K, 3000 kPa",0.1873 ± 0.0056 mPa·s
same,viscosity,"283.14 K, 5000 kPa",0.194 ± 0.0057 mPa·s
same,viscosity,"283.14 K, 10000 kPa",0.2079 ± 0.006 mPa·s
same,viscosity,"283.14 K, 15000 kPa",0.2222 ± 0.0062 mPa·s
same,viscosity,"283.14 K, 20000 kPa",0.2356 ± 0.0064 mPa·s
same,viscosity,"283.14 K, 25000 kPa",0.2487 ± 0.0067 mPa·s
same,viscosity,"283.14 K, 30000 kPa",0.262 ± 0.0069 mPa·s
same,viscosity,"293.15 K, 592 kPa",0.1612 ± 0.0053 mPa·s
same,viscosity,"293.15 K, 1000 kPa",0.1636 ± 0.0053 mPa·s
same,viscosity,"293.15 K, 3000 kPa",0.169 ± 0.0054 mPa·s
same,viscosity,"293.15 K, 5000 kPa",0.1755 ± 0.0055 mPa·s
same,viscosity,"293.15 K, 10000 kPa",0.1885 ± 0.0057 mPa·s
same,viscosity,"293.15 K, 15000 kPa",0.2018 ± 0.0059 mPa·s
same,viscosity,"293.15 K, 20000 kPa",0.2152 ± 0.0061 mPa·s
same,viscosity,"293.15 K, 25000 kPa",0.2287 ± 0.0063 mPa·s
same,viscosity,"293.15 K, 30000 kPa",0.2414 ± 0.0065 mPa·s
same,viscosity,"303.15 K, 784 kPa",0.1425 ± 0.005 mPa·s
same,viscosity,"303.15 K, 1000 kPa",0.1434 ± 0.005 mPa·s
same,viscosity,"303.15 K, 3000 kPa",0.149 ± 0.0051 mPa·s
same,viscosity,"303.15 K, 5000 kPa",0.1554 ± 0.0051 mPa·s
same,viscosity,"303.15 K, 10000 kPa",0.1696 ± 0.0054 mPa·s
same,viscosity,"303.15 K, 15000 kPa",0.1834 ± 0.0056 mPa·s
same,viscosity,"303.15 K, 20000 kPa",0.1965 ± 0.0058 mPa·s
same,viscosity,"303.15 K, 25000 kPa",0.2092 ± 0.006 mPa·s
same,viscosity,"303.15 K, 30000 kPa",0.2215 ± 0.0062 mPa·s
same,viscosity,"313.14 K, 1019 kPa",0.1259 ± 0.0047 mPa·s
same,viscosity,"313.14 K, 3000 kPa",0.1324 ± 0.0048 mPa·s
same,viscosity,"313.14 K, 5000 kPa",0.1392 ± 0.0049 mPa·s
same,viscosity,"313.14 K, 10000 kPa",0.1543 ± 0.0051 mPa·s
same,viscosity,"313.14 K, 15000 kPa",0.1681 ± 0.0053 mPa·s
same,viscosity,"313.14 K, 20000 kPa",0.1808 ± 0.0055 mPa·s
same,viscosity,"313.14 K, 25000 kPa",0.1929 ± 0.0057 mPa·s
same,viscosity,"313.14 K, 30000 kPa",0.2046 ± 0.0059 mPa·s
same,viscosity,"323.16 K, 1303 kPa",0.1103 ± 0.0045 mPa·s
same,viscosity,"323.16 K, 3000 kPa",0.1169 ± 0.0046 mPa·s
same,viscosity,"323.16 K, 5000 kPa",0.1239 ± 0.0047 mPa·s
same,viscosity,"323.16 K, 10000 kPa",0.1396 ± 0.0049 mPa·s
same,viscosity,"323.16 K, 15000 kPa",0.1536 ± 0.0051 mPa·s
same,viscosity,"323.16 K, 20000 kPa",0.1664 ± 0.0053 mPa·s
same,viscosity,"323.16 K, 25000 kPa",0.1783 ± 0.0055 mPa·s
same,viscosity,"323.16 K, 30000 kPa",0.1893 ± 0.0057 mPa·s
same,viscosity,"333.16 K, 1643 kPa",0.0965 ± 0.0044 mPa·s
same,viscosity,"333.16 K, 3000 kPa",0.1031 ± 0.0044 mPa·s
same,viscosity,"333.16 K, 5000 kPa",0.1108 ± 0.0045 mPa·s
same,viscosity,"333.16 K, 10000 kPa",0.127 ± 0.0047 mPa·s
same,viscosity,"333.16 K, 15000 kPa",0.141 ± 0.0049 mPa·s
same,viscosity,"333.16 K, 20000 kPa",0.1537 ± 0.0051 mPa·s
same,viscosity,"333.16 K, 25000 kPa",0.1656 ± 0.0053 mPa·s
same,viscosity,"333.16 K, 30000 kPa",0.1762 ± 0.0055 mPa·s
same,viscosity,"343.16 K, 2046 kPa",0.0832 ± 0.0042 mPa·s
same,viscosity,"343.16 K, 3000 kPa",0.0885 ± 0.0043 mPa·s
same,viscosity,"343.16 K, 5000 kPa",0.0976 ± 0.0044 mPa·s
same,viscosity,"343.16 K, 10000 kPa",0.115 ± 0.0046 mPa·s
same,viscosity,"343.16 K, 15000 kPa",0.1291 ± 0.0048 mPa·s
same,viscosity,"343.16 K, 20000 kPa",0.1417 ± 0.0049 mPa·s
same,viscosity,"343.16 K, 25000 kPa",0.1534 ± 0.0051 mPa·s
same,viscosity,"343.16 K, 30000 kPa",0.1644 ± 0.0053 mPa·s
same,viscosity,"353.16 K, 2521 kPa",0.0685 ± 0.0043 mPa·s
same,viscosity,"353.16 K, 3000 kPa",0.0731 ± 0.0042 mPa·s
same,viscosity,"353.16 K, 5000 kPa",0.0846 ± 0.0042 mPa·s
same,viscosity,"353.16 K, 10000 kPa",0.1035 ± 0.0044 mPa·s
same,viscosity,"353.16 K, 15000 kPa",0.1189 ± 0.0046 mPa·s
same,viscosity,"353.16 K, 20000 kPa",0.1314 ± 0.0048 mPa·s
same,viscosity,"353.16 K, 25000 kPa",0.1424 ± 0.0049 mPa·s
same,viscosity,"353.16 K, 30000 kPa",0.1527 ± 0.0051 mPa·s
same,viscosity,"363.16 K, 3081 kPa",0.0521 ± 0.0043 mPa·s
same,viscosity,"363.16 K, 5000 kPa",0.0732 ± 0.0042 mPa·s
same,viscosity,"363.16 K, 10000 kPa",0.093 ± 0.0043 mPa·s
same,viscosity,"363.16 K, 15000 kPa",0.109 ± 0.0045 mPa·s
same,viscosity,"363.16 K, 20000 kPa",0.1211 ± 0.0047 mPa·s
same,viscosity,"363.16 K, 25000 kPa",0.1322 ± 0.0048 mPa·s
same,viscosity,"363.16 K, 30000 kPa",0.1429 ± 0.005 mPa·s
